The subject of one assay is Phakopsora pachyrhizi. The assay is described as follows: Curative control of soy bean rust on soy beans, green house test. Conditions: 300 ppm, curative spray after inoculation; assessed after 14 days; untreated plants 90% infected. It is filed as in vivo, Phakopsora pachyrhizi on soy bean seedlings. The protocol: (§1) The spray solutions were prepared in several steps: A mixture of acetone and/or dimethylsulfoxide and the wetting agent/emulsifier Wettol, which is based on ethoxylated alkylphenoles, in a relation (volume) solvent-emulsifier of 99 to 1 was added to 25 mg of the compound to give a total of 10 ml. Water was then added to total volume of 100 ml. This stock solution was diluted with the described solvent-emulsifier-water mixture to the given concentration.
Leaves of pot-grown soy bean seedlings were inoculated with spores of Phakopsora pachyrhizi. To ensure the success of the artificial inoculation, the plants were transferred to a humid chamber with a relative humidity of about 95% and 20 to 24° C. for 24 h. The next day the plants were cultivated for 2 days in a greenhouse chamber at 23-27° C. and a relative humidity between 60 and 80%. Then the plants were sprayed to run-off with an aqueous suspension, containing the concentration of active ingredient as described below. The plants were allowed to air-dry. Then the trial plants were cultivated for 14 days in a greenhouse chamber at 23-27° C. and a relative humidity between 60 and 80%. The extent of fungal attack on the leaves was visually assessed as % diseased leaf area.

A further assay relates to Puccinia recondite. The assay is described as follows: Preventative control of brown rust on wheat, green house test. It is filed as in vivo, Puccinia recondite on wheat seedlings. Conditions: 300 ppm, preventative spray one day before inoculation; assessed after 6 days in greenhouse; untreated plants 80% infected. The protocol: as §1
The first two developed leaves of pot-grown wheat seedling were sprayed to run-off with an aqueous suspension, containing the concentration of active ingredient or their mixture as described below. The next day the plants were inoculated with spores of Puccinia recondite. To ensure the success the artificial inoculation, the plants were transferred to a humid chamber without light and a relative humidity of 95 to 99% and 20 to 24° C. for 24 h. Then the trial plants were cultivated for 6 days in a greenhouse chamber at 20-24° C. and a relative humidity between 65 and 70%. The extent of fungal attack on the leaves was visually assessed as % diseased leaf area.

A further assay concerns Botrytis cinerea. The assay is described as follows: Activity against the grey mold Botrytis cinerea in the microtiterplate test (Botrci). It is filed as cell-based. Conditions: 31 ppm active compound; absorption at 405 nm 7 days after inoculation; active compound-free control = 100%. The procedure: The active substances were formulated separately as a stock solution in dimethyl sulfoxide (DMSO) at a concentration of 10 000 ppm. The stock solutions were mixed according to the ratio, pipetted onto a micro titer plate (MTP) and diluted with water to the concentration given below. A spore suspension of Botrytis cinerea in an aqueous biomalt solution was then added. The plates were placed in a water vapor-saturated chamber at a temperature of 18° C. Using an absorption photometer, the MTPs were measured at 405 nm 7 days after the inoculation. The measured parameters were compared to the growth of the active compound-free control variant (100%) and the fungus-free and active compound-free blank value to determine the relative growth in % of the pathogens in the respective active compounds.

Consider `CC(C1CC1)C(O)(Cn1ncnc1S)c1ccccc1` (stereo not shown) [I.A.4, 2-Phenyl-3-cyclopropyl-1-(5-mercapto-[1,2,4]triazol-1-yl)-butan-2-ol], for which the “infection (% diseased leaf area)” value with Phakopsora pachyrhizi is given as 0%; in the assay with Puccinia recondite, 20%.

As to `CC(C1CC1)C(O)(Cn1ncnc1S)c1ccc(Cl)c(Cl)c1` (stereo not shown) [I.A.5, 2-(3,4-Dichloro-phenyl)-3-cyclopropyl-1-(5-mercapto-[1,2,4]triazol-1-yl)-butan-2-ol], the “infection (% diseased leaf area)” value in the assay with Phakopsora pachyrhizi is 0%; with Puccinia recondite, 20%.

Take `CC(C1(C)CC1)C(O)(Cn1ncnc1S)c1ccccc1` (stereo not shown) [I.A.9, 2-Phenyl-3-(1-methylcyclopropyl)-1-(5-mercapto-[1,2,4]triazol-1-yl)-butan-2-ol]: the “infection (% diseased leaf area)” value in the assay on Phakopsora pachyrhizi amounted to 0%.

In the case of `OC(CC1CC1)(Cn1ncnc1S)c1ccc(Cl)cc1` (stereo not shown) [I.A.1, 2-(4-Chloro-phenyl)-3-cyclopropyl-1-(5-mercapto-[1,2,4]triazol-1-yl)-propan-2-ol], the “infection (% diseased leaf area)” value in the assay on Phakopsora pachyrhizi was 0%; in the assay with Puccinia recondite, 20%.

Regarding `CC(C1CCCCC1)C(O)(Cn1ncnc1S)c1ccc(Cl)cc1` (stereo not shown) [I.A.3, 2-(4-Chloro-phenyl)-3-cyclohexyl-1-(5-mercapto-[1,2,4]triazol-1-yl)-butan-2-ol], the “infection (% diseased leaf area)” value in the assay with Phakopsora pachyrhizi is recorded as 0%; in the assay on Puccinia recondite it was 20%. The “relative growth in % of the pathogen” value in the assay on Botrytis cinerea is reported as 0%.

Regarding `CC(C1CCCC1)C(O)(Cn1ncnc1S)c1ccc(Cl)cc1` (stereo not shown) [I.A.7, 2-(4-Chloro-phenyl)-3-cyclopentyl-1-(5-mercapto-[1,2,4]triazol-1-yl)-butan-2-ol], the “infection (% diseased leaf area)” value in the assay on Phakopsora pachyrhizi is 0%; in the assay on Puccinia recondite, 20%.

In the case of `OC(CC1CC1)(Cn1ncnc1S)c1ccc(Cl)cc1Cl` (stereo not shown) [I.A.2, 2-(2,4-Dichloro-phenyl)-3-cyclopropyl-1-(5-mercapto-[1,2,4]triazol-1-yl)-propan-2-ol], the entries for the “infection (% diseased leaf area)” value in the assay with Phakopsora pachyrhizi and with Puccinia recondite were 0% and 20%, respectively.

For the compound `CC(C1(C)CC1)C(O)(Cn1ncnc1S)c1ccc(Cl)cc1` (stereo not shown) [I.A.6, 2-(4-Chloro-phenyl)-3-(1-methylcyclopropyl)-1-(5-mercapto-[1,2,4]triazol-1-yl)-butan-2-ol], the “infection (% diseased leaf area)” value in the assay with Phakopsora pachyrhizi came to 0%; in the assay with Puccinia recondite it was 20%. Further, the “relative growth in % of the pathogen” value in the assay with Botrytis cinerea was 0%.

Take `CC(C1CC1)C(O)(Cn1ncnc1S)c1ccc(F)c(F)c1` (stereo not shown) [I.A.8, 2-(3,4-Difluoro-phenyl)-3-cyclopropyl-1-(5-mercapto-[1,2,4]triazol-1-yl)-butan-2-ol]: the “infection (% diseased leaf area)” value with Phakopsora pachyrhizi is 0%; with Puccinia recondite it was 20%.
